Results reported in US20160138077A1, “MONITORING AND ASSESSING DEACETYLASE ENZYME ACTIVITY” (THE GENERAL HOSPITAL CORPORATION, priority 2013, published 2016).

Legend:
Chymotrypsin = target: T1, Chymotrypsin (Bos taurus, UniProt P00766); assay: LCMS assay of protease enzymatic action on HP-1; assay type: biochemical; settings: −SAHA, 5 μM HP-1, 12 hours at 37° C.
T1 construct: purchased Sigma-Aldrich
Protocol: (§1) The enzymatic cleavage of HP-1 was analyzed by performing LCMS assays with sirtuin 1 and 3 (Cayman Chemicals) and the proteases chymotrypsin (Sigma-Aldrich), cathepsin (EMD Millipore), and pepsin* (Sigma-Aldrich). Solutions containing (i) vehicle with DMSO in HDAC buffer, (ii) 5 μM HP-1 in HDAC buffer, and (iii) 5 μM HP-1 and the enzyme in HDAC buffer were incubated for 12 hours at 37° C. Following incubation, a 20 μL aliquot of supernatant from each sample was analyzed by LCMS. Deacetylation of HP-1 was investigated by screening for the DHP-1 (M+H)^+ ion following positive electrospray ionization. All assay samples were analyzed in triplicate. […]
(§2) HP-1 was not altered by sirtuins 1 and 3 or the proteases chymotrypsin, cathepsin and pepsin, as determined by LCMS. […] For Cathepsin B, the cleavage of the enzyme substrate, z-RR-pNA (Santa Cruz Biotechnology, Dallas, Tex.) was monitored using a Wallac EnVision 2103 Multilabel fluorescence plate reader (PerkinElmer, Waltham, Mass.) with a 405 nm excitation filter, a 406 nm emission filter, and a gain of 150. The cleavage of the pepsin substrate, Ac-Phe-Tyr-OH (Chem-Impex Inc.), was monitored by LCMS at pH 4. […]

Cathepsin B = target: T2, Cathepsin B (Homo sapiens, UniProt P07858); assay: LCMS assay of protease enzymatic action on HP-1; assay type: biochemical; settings: −SAHA, 5 μM HP-1, 12 hours at 37° C.
T2 construct: purchased EMD Millipore
Protocol: as §1, §2

HeLa cells = assay: Confocal fluorescence imaging of HDAC activity in HeLa cells; assay type: cell-based; settings: 5 μM probe, 2 hours
Protocol: Imaging HDAC activity in HeLa cells with HP-1 and 2. An acid-washed, poly-lysine-treated sterile glass cover slip was added to each well of 6-well plate, and HeLa cells were plated at a seeding density of ˜2.5×10^5 cells/mL in 2 mL of growth medium. After 24 hours, the cells reached 80-85% confluence. For all experiments, solutions of HP-1 and HP-2 (200 mM each) were prepared in DMSO and diluted in HDAC buffer to a final concentration of 100 μM. SAHA solutions (100 mM) were prepared in DMSO and diluted in HDAC buffer to make a 100 μM solution. All solutions were prepared immediately prior to application to the cells. […]
Confocal fluorescence image acquisition and analysis. Confocal fluorescence imaging was performed with a Zeiss laser scanning microscope 710 with a 63× objective lens and Zen 2009 software (Carl Zeiss). […] The mean fluorescence intensity of 10 cells per coverslip was measured using ImageJ software. […] The mean background signal was also measured and subtracted from the mean fluorescence signal within the cells. Mean fluorescence intensities and standard deviations were plotted in Microsoft Excel.
Imaging HDAC activity in HeLa cells with HP-1 and 2. […] Cover slips were mounted on a drop of Gel Mount (anti-fade with DAPI nuclear stain) and analyzed by confocal imaging.
Confocal fluorescence imaging. […]

Pepsin = target: T3, Pepsin (Sus scrofa, UniProt P00791); assay: LCMS assay of protease enzymatic action on HP-1 (HDAC buffer at pH 4); assay type: biochemical; settings: −SAHA, 5 μM HP-1, 12 hours at 37° C.
T3 construct: purchased Sigma-Aldrich
T3 sequence (P00791 60-385): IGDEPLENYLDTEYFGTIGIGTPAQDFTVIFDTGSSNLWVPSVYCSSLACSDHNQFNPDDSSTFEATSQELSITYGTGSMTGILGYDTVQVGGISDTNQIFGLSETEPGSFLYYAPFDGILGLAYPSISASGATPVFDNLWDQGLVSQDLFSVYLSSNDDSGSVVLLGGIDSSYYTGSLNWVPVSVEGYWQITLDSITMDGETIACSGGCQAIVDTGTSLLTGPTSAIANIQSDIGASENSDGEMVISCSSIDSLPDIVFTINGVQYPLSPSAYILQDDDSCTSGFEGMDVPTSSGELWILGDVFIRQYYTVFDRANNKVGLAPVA
Protocol: as §1, §2

## CC(=O)NC=CCCCCNC(=O)CCCCCNc1ccc([N+](=O)[O-])c2nonc12 [HP-1]
Chymotrypsin
  % HP-1 to DHP-1: 0%
Cathepsin B
  % HP-1 to DHP-1: 0%
HeLa cells; 10 μM SAHA added 15 min prior
  intracellular NBD fluorescence: reduces the level of fluorescence
HeLa cells; absence of SAHA
  intracellular NBD fluorescence: robust intracellular fluorescent signal
Pepsin
  % HP-1 to DHP-1: 0%
